Strand notation (5' to 3'): a small letter for the sugar, then the base; units joined by * are phosphorothioate-linked, units joined directly phosphodiester-linked; [ ] holds rarer units or linkages, { } end groups; capitals alone tell only the bases. d = 2'-deoxy (DNA)
Tested on: wild-type EGFR
Test: Western immunoblotting of EGFR expression and downstream signaling in wild-type EGFR cell lines
Assay type: cell-based, human
Settings: A549 and CL1-5 cells, 100 nM
Description: A549, CL1-5, H1975, or CL97 was seeded onto 6-well at 3×10^5 cells/well and cultured overnight. Then, cells were separately treated with 100 nM DzControl or DzT790M-1 with lipofectamine 2000 (Invitrogen). The transfected A549 and CL1-5 cells were serum-starved for 24 h and treated with 100 ng/ml of EGF at 37° C. for 15 min. 72 h after transfection, cell were collected for analysis. Cells were washed twice by ice-cold PBS and then total protein was extracted by RIPA buffer with protease inhibitor (Roche). 50 μg of total protein from the supernatants were boiled for 5 min at 95° C. The samples were resolved on 10% SDS-PAGE gel and transferred onto nitrocellulose membranes. EGFR expression and downstream signaling were detected by using primary antibodies specific to human pEGFR(Y1068) (Cell signaling), tEGFR (Santa Cruz), pSTAT3 (Y705) (Cell signaling), tSTAT3 (Cell signaling), pAKT (5473)(Cell signaling), tAKT (Santa Cruz), pERK (T202/Y204) (Cell signaling), tERK (Santa Cruz), and cleaved PARP (Cell signaling) at 1:1000 dilution and β-actin (Santa Cruz) at 1:10000 dilution, respectively. Secondary antibodies against rabbit IgG or mouse IgG was used at 1:5000 dilution. Protein bands on membrane were visualized by exposure to the chemiluminescence substrate.
EGFR belongs to receptor tyrosine kinases. The binding of its extracellular ligands triggers receptor dimerization, tyrosine residues phosphorylation, and downstream signaling activation including signal transducer and activator of transcription 3 (STAT3), Akt, extracellular signal regulated kinases (ERK), and others. To examine the effects of DzT790M on protein expression level of EGFR and its downstream signaling, western immunoblotting was performed on DzT790M transfected cells. A549, CL1-5, H1975, or CL97 was seeded onto 6-well at 3×10^5 cells/well and cultured overnight. Then, cells were separately treated with 100 nM DzControl or DzT790M-1 with lipofectamine 2000 (Invitrogen). The transfected A549 and CL1-5 cells were serum-starved for 24 h and treated with 100 ng/ml of EGF at 37° C. for 15 min. 72 h after transfection, cell were collected for analysis. Cells were washed twice by ice-cold PBS and then total protein was extracted by RIPA buffer with protease inhibitor (Roche). […] Also, activation of downstream STAT3, AKT, and ERK signaling after EGF treatment were not inhibited by DzT790M-1 or DzT790M-2 transfection.
CL1-5 (EGFR wild-type) or H1975 (EGFR T790M) were seeded onto 6-well at 3×10^5 cells/well and cultured overnight. […] The transfected CL1-5 cells were serum-starved for 24 h and treated with 100 ng/ml of EGF at 37° C. for 15 min. 72 h after transfection, cells were collected for western blotting analysis following the above mentioned procedure. […]

DzT790M-1: 10-23 DNAzyme against EGFR T790M mRNA, arms 10/4, phosphorothioate ends: AGCTGCATGAGGCTAGCTACAACGAGAGC (DNA dA*dGdCdTdGdCdAdTdGdAdGdGdCdTdAdGdCdTdAdCdAdAdCdGdAdGdAdG*dC; further chemistry not fully specified)
activation of downstream STAT3, AKT, and ERK signaling after EGF treatment (100 ng/ml EGF 15 min): not inhibited | protein level of EGFR compared to DzControl group (72 h after transfection): did not decreased

— patent publication US9856480B2, “Dnazyme for silencing the expression of EGFR” (DCB-USA LLC, priority 2013, dated 2018)
